Counter-ions that a name gives are not always drawn. Like-named read-outs stand apart in the source and are kept apart here.
What was measured:
Assay type in all cases: cell-based
Candida albicans = assay: Growth inhibition in liquid medium (Sabouraud broth); conditions: Sabouraud broth, 28° C., 18 hours; read-out: IC 50 (growth-inhibiting concentration of 50%)
Procedure: (§1) A.1 : Study of the antibiotic efficiency of AmB derivatives in liquid medium against different yeasts
(§2) The antibiotic efficiency was tested by the growth inhibition method in liquid medium (Sabouraud broth) in the presence of different concentrations of the derivatives studied.
(§3) A yeast suspension was cultivated in a broth in such a manner that about 1×10^2 cell/ml were obtained.
(§4) The tubes containing the different concentrations of antifungal substance were inoculated with the same amount of yeast cells, and were then incubated at 28° C. for 18 hours with stirring. For each concentration of antifungal substance, two identical tubes were prepared.
(§5) The inhibition of fungal growth corresponding to the different concentrations was evaluated for each molecule by spectrophotometry at 620 nm and expressed in percent with respect to a reference solution without antifungal substance.

Cryptoccocus neoformans = assay: as above; conditions: Sabouraud broth, 28° C., 18 hours, read-out: IC 50 (growth-inhibiting concentration of 50%)
Procedure: as §1, §2, §3, §4, §5

Pytirosporum orbiculare = assay: as above; conditions: Sabouraud broth, 28° C., 18 hours; read-out: IC 50 (growth-inhibiting concentration of 50%)
Procedure: as §1, §2, §3, §4, §5

Saccharomyces cerevisiae = assay: as above; conditions: Saccharomyces cerevisiae, 18 h, Sabouraud broth, 28° C., 18 hours; read-out: IC 50 (growth-inhibiting concentration of 50%)
Procedure: as §1, §2, §3, §4, §5

Aspergillus flavus = assay: Diffusion method in agar-agar medium (Sabouraud agar-agar); conditions: Aspergillus flavus, Sabouraud agar-agar, disc diameter 1 cm, 0.1 ml; read-out: concentration giving a growth inhibition of 1 cm around a disc in solid medium
Procedure: (§6) A.2 : Study of the antibiotic efficiency of amphotericine B derivatives in agar-agar medium against Aspergillus
(§7) The antibiotic activity was tested by the diffusion method in agar-agar medium (Sabouraud agar-agar).
(§8) The efficiency of each molecule was determined by the size of the growth-inhibiting zone around a WHATMAN 3M paper disc impregnated with the antibiotic substance of a given concentration.
(§9) A suspension of Aspergillus spores in a broth was prepared, 0.2 ml of this suspension was used to inoculate at its surface an agar-agar medium which was solidified in such a manner that a homogeneous growth layer was obtained. After spreading, the WHATMAN 3M paper discs (diameter: 1 cm) were placed on the surface of the agar-agar, and then impregnated with 0.1 ml of the antibiotic substance at different concentrations.

Aspergillus fumigatus = assay: as above; conditions: Sabouraud agar-agar, disc diameter 1 cm, 0.1 ml
Procedure: as §6, §7, §8, §9

red corpuscles [1] = assay: Toxicity on red corpuscles (lysis), mice; conditions: 37° C., 1 hour 30, 90 min, 90 min, read-out: LD 50 (dose which leads to lysis in 50% of the erythrocytes)
Procedure: (§10) B.1: Study of the toxicity on red corpuscles
(§11) All the solutions of the AmB derivatives according to the invention were prepared immediately before use by diluting 4 mg of substance in 100 μl of 5% glucose solution, and then, after 15 minutes protected from light, 100 μl of sterile distilled water are added, and the mixture is made up to stock solutions of 4 mg/ml with a 5% glucose solution. For comparative study of the effects of AmB, 4 mg of FUNGIZONE are diluted with 1 ml of 5% glucose.
(§12) The cells are prepared by placing 1 ml of a peripheral blood sample into a tube together with Ficollhypaque to remove the lymphocytes, and then centrifuging the mixture at 2000 rpm for 20 minutes. The remaining red corpuscles are recovered, washed once with 0.9% NaCl and then twice with 150 Mm KCl, 0.5 Mm tris-HCl, pH 7.4.
(§13) A 1.25% suspension is then prepared with 150 mM KCl solution, 0.5 mM tris-HCl, pH 7.4, and 150 μl thereof are distributed in wells along with 50 μl of each of the dilutions of the derivatives, plus a control well (5% glucose solution).
(§14) The cells are then incubated at 37° C. in a steam cabinet for 1 hour 30.
(§15) To evaluate the cell lysis, haemoglobin is essayed by removing 100 μl of the supernatant in each well and diluting the sample with 1 ml of distilled water.
(§16) The haemoglobin concentration is calculated by measuring the optical density at 540 nm and taking into account the absorption of the derivatives of amphotericine B.
(§17) LD 50 is the dose which leads to lysis in 50% of the erythrocytes (a control of 100% lysis is obtained with distilled water, and reference lysis of 0% is obtained with the 5% glucose solution).

[2] = Toxicity on nucleated cells, mice thymocytes; conditions: mouse, thymocytes, 1 hour 30, trypan blue, read-out: LD 50 (concentration leading to a mortality of 50%)
[3] = Toxicity on nucleated cells, X 63 mice lymphoma B; conditions: mouse, x 63 lymphoma cells, 1 hour 30, trypan blue, read-out: LD 50 (concentration leading to a mortality of 50%)
PBL = assay: Toxicity on nucleated cells, human PBL; conditions: human PBL, 1 hour 30, trypan blue; 90 min; read-out: LD 50 (concentration leading to a mortality of 50%)
Procedure: (§18) B.2: Study of the toxicity on nucleated cells
(§19) The solutions of the amphotericine B derivatives are prepared similarly to those mentioned in paragraph B.1.
(§20) The cells are prepared by placing 20 ml of blood diluted to 1/2 with 0.9% NaCl into a tube together with 10 ml of Ficoll-hypaque, and the mixture is centrifuged at 2000 rpm for 30 minutes. The cell nuclei are recovered and washed twice with PBS buffer containing 5% of foetal calf serum.
(§21) The cells are prepared by suspending 1.14×10^6 cells/ml in RPMI 1640 containing 2.5% of foetal calf serum and by filling each well with 150 μl. 50 μl of each dilution of the derivatives are added and also one control (5% glucose solution).
(§22) The cells are then incubated in a steam cabinet at a CO2 concentration of 5% for 1 hour 30 at 37° C. or at ambient temperature.
(§23) To evaluate the toxicity of the derivatives, a cell count in the presence of trypan blue is made, and the LD 50 (concentration of the derivative leading to a mortality of 50%) is calculated with respect to the control (5% glucose solution) for each concentration of each derivative.

red corpuscles [4] = assay: Toxicity on red corpuscles (lysis), human; conditions: 37° C., 1 hour 30, 90 min, 90 min, read-out: LD 50 (dose which leads to lysis in 50% of the erythrocytes)
Procedure: as §10, §11, §12, §13, §14, §15, §16, §17

DAUDI (human lymphoma B) = assay: Toxicity on nucleated cells, DAUDI human lymphoma B; conditions: 1 hour 30, trypan blue, 90 min, read-out: LD 50 (concentration leading to a mortality of 50%)
[5] = Toxicity on nucleated cells, human PBL; conditions: human, pbl, human PBLs; AmB 12 derivative, comparison of different catalysts (Table 4); read-out: LD 50
Procedure: as §18, §19, §20, §21, §22, §23

[6] = Toxicity on nucleated cells, mice T lymph gland cells; conditions: mouse, 1 hour 30, trypan blue, read-out: LD 50 (concentration leading to a mortality of 50%)
Procedure: as §18, §19, §20, §21, §22, §23

[7] = Toxicity on nucleated cells, mice B lymph gland cells; conditions: mouse, 1 hour 30, trypan blue, read-out: LD 50 (concentration leading to a mortality of 50%)
Procedure: as §18, §19, §20, §21, §22, §23

X 63 (mice lymphoma B) = assay: Toxicity on nucleated cells, X 63 mice lymphoma B; conditions: 1 hour 30, trypan blue, 90 min, read-out: LD 50 (concentration leading to a mortality of 50%)
[8] = Toxicity on red corpuscles (lysis), human; conditions: human, red corpuscles, 37° C., 1 hour 30, read-out: LD 50 (dose which leads to lysis in 50% of the erythrocytes)
Procedure: as §10, §11, §12, §13, §14, §15, §16, §17

[9] = Toxicity on nucleated cells, human bone marrow; conditions: 1 hour 30, trypan blue, read-out: LD 50 (concentration leading to a mortality of 50%)
Procedure: as §18, §19, §20, §21, §22, §23

[10] = Toxicity on nucleated cells, human thymocytes; conditions: 1 hour 30, trypan blue, read-out: LD 50 (concentration leading to a mortality of 50%)
Procedure: as §18, §19, §20, §21, §22, §23

[11] = Toxicity on nucleated cells, DAUDI human lymphoma B; conditions: human, daudi lymphoma b cells, 1 hour 30, trypan blue, read-out: LD 50 (concentration leading to a mortality of 50%)

With CC(=O)NC[C@H]1OC(O)(CN[C@@H]2[C@H](O)[C@H](O[C@H]3/C=C/C=C/C=C/C=C/C=C/C=C/C=C/[C@H](C)[C@@H](O)[C@@H](C)[C@H](C)OC(=O)C[C@H](O)C[C@H](O)CC[C@@H](O)[C@H](O)C[C@H](O)C[C@]4(O)C[C@H](O)[C@@H](C(=O)O)[C@H](C3)O4)O[C@H](C)[C@H]2O)[C@@H](O)[C@@H]1O (some centres unmarked) [AmB 23 F, 6-deoxy-6-N-acetyl-1-deoxy-1-aminofructosyl-AmB] the IC50 (Candida albicans) was 0.4 µM, the IC50 (Cryptoccocus neoformans; 18 h) was 0.15 µM and the IC50 (Pytirosporum orbiculare) was 0.076 µM. For the same compound, the IC50 (Saccharomyces cerevisiae) was 1.6 µM, the IC (1 cm inhibition zone) (Aspergillus flavus) was 600 µM and the “concentration giving a growth inhibition of 1 cm around a disc in solid medium” value (Aspergillus fumigatus) was 2 × 10^-4 molarity. For the same compound, the HC50 (red corpuscles [1]) was 12 µM, the CC50 at 1.5 h [2] was 3 µM and the CC50 at 1.5 h [3] was > 1000 µM. The CC50 (PBL) was 80 µM, the HC50 (red corpuscles [4]) was 50 µM and the CC50 (DAUDI (human lymphoma B)) was > 1000 µM.
For C[C@@H]1[C@H](O)[C@@H](C)/C=C/C=C/C=C/C=C/C=C/C=C/C=C/[C@H](O[C@@H]2O[C@H](C)[C@@H](O)[C@H](NC3O[C@H](C(N)=O)[C@@H](O)[C@H](O)[C@H]3O)[C@@H]2O)C[C@@H]2O[C@](O)(C[C@@H](O)C[C@@H](O)[C@H](O)CC[C@@H](O)C[C@@H](O)CC(=O)O[C@H]1C)C[C@H](O)[C@H]2C(=O)O (some centres unmarked) [Uncatalyzed NMG salt, reference compound], the CC50 at 1.5 h [5] was 80 µM.
For CC1OC[C@@H](O)[C@H]([C@H](O)C(=O)CN[C@@H]2[C@H](O)[C@H](O[C@H]3/C=C/C=C/C=C/C=C/C=C/C=C/C=C/[C@H](C)[C@@H](O)[C@@H](C)[C@H](C)OC(=O)C[C@H](O)C[C@H](O)CC[C@@H](O)[C@H](O)C[C@H](O)C[C@]4(O)C[C@H](O)[C@@H](C(=O)O)[C@H](C3)O4)O[C@H](C)[C@H]2O)O1 (stereo partly drawn) [AmB 22 F, 1-deoxy-1-amino-4,6-O-ethylidene-D-fructosyl-AmB], the IC50 (Candida albicans) was 0.56 µM, the IC50 (Cryptoccocus neoformans) was 0.25 µM and the IC50 (Pytirosporum orbiculare) was 0.18 µM. The IC50 (Saccharomyces cerevisiae) was 1.6 µM, the IC (1 cm inhibition zone) (Aspergillus flavus) was 150 µM and the “concentration giving a growth inhibition of 1 cm around a disc in solid medium” value (Aspergillus fumigatus) was 5 × 10^-4 molarity. It also gave an HC50 (red corpuscles [1]) of 90 µM, a CC50 at 1.5 h [6] of 20 µM and a CC50 at 1.5 h [7] of 20 µM. For the same compound, the CC50 at 1.5 h [2] was 3.5 µM, the CC50 (X 63 (mice lymphoma B)) was > 1000 µM and the CC50 (PBL) was > 1000 µM. For the same compound, the HC50 at 1.5 h [8] was 100 µM, the CC50 at 1.5 h [9] was 1000 µM and the CC50 at 1.5 h [10] was > 300 µM. The CC50 at 1.5 h [11] was > 1000 µM.

From patent publication US5314999A, “Derivatives of basic polyene macrolides and their preparation” (Laboratoires Mayoly-Spindler, priority 1989, dated 1994)
